One test has as its target PepT2. To be noted: cell-based assays, inhibition of a radioactive reporter peptide; cited from earlier work.
In test [1] the target is T1, rat PepT2 (Rattus norvegicus, UniProt Q63424).
T1 construct: His-tagged GFP (C, cleaved yes); made in house; host or cells: HEK293F cells
T1 sequence (Q63424 1-729): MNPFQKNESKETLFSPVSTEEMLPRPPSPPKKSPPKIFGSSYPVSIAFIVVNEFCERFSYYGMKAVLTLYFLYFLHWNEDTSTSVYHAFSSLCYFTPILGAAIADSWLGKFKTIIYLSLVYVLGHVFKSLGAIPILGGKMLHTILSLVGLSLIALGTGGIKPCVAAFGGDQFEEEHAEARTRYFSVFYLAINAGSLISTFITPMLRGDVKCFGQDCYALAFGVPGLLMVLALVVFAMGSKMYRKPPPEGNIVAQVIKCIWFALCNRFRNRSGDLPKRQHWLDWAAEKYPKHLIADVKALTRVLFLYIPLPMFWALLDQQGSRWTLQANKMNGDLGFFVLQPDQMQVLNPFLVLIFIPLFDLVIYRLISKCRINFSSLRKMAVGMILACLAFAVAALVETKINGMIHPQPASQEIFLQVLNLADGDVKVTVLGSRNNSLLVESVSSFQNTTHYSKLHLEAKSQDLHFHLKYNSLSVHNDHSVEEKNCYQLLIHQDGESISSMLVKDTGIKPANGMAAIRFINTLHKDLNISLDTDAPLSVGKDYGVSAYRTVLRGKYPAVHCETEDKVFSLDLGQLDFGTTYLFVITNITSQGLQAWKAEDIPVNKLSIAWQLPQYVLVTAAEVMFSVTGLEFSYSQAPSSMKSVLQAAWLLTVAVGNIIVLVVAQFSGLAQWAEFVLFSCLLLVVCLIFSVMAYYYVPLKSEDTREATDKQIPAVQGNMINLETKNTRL
In words: Inhibition of uptake of radioactive di-alanine peptide into PepT2 proteoliposomes (IC50). In kind it is biochemical. The procedure: (§1) The lipids were dried to obtain a thin film using a rotary evaporator and washed twice in pentane before being resuspended at 10 mg mL^–1 in lipid buffer (50 mM potassium phosphate at pH 7.5). These lipid vesicles were frozen and thawed twice in liquid nitrogen and stored at −80 °C until required. For reconstitution, the lipids were thawed and then extruded first through a 0.8-μm filter and then through a 0.4-μm filter. Purified PepT2 at 0.3 μg μl^−1 was added to the lipids at a final lipid:protein ratio of 100:1 (w/w) for transport assays or 10:1 for solid support membrane (SSM) experiments and incubated for 1 h at room temperature, then for a further 1 h on ice. After this time, biobeads were added in batches. After 24 h biobeads were removed and the proteoliposomes harvested by centrifugation at 120,000 g for 40 min before resuspension in lipid buffer at a final protein concentration of 0.25 μg μl^−1, or 0.5 ug ul^−1 for liposomes for SSM. They were subjected to three rounds of freeze–thawing in liquid nitrogen before storage at −80 °C.
The reaction was initiated through the addition of valinomycin at 1 μM and stopped after 4 minutes by rapidly filtering onto 0.22-μm filters, which were then washed with 2 × 2 mL cold water. […] Experiments were performed three times (from at least 2 independent purifications and reconstitutions) to generate an overall mean and s.d.

The target in test [2] is T1, rat PepT2. In words: Counterflow transport assay in PepT2 proteoliposomes. In kind it is biochemical. To be noted: for Counterflow transport, individual experiments (source data Fig 1d): relative to di-alanine; for Counterflow activity relative to L-Ala-L-Ala: Supplementary Table 2, RnPepT2 reconstituted liposome assay; for Ability to drive transport in counterflow: result in words, cloxacillin also at 10 mM. The procedure: as §1, with “PepT2 was reconstituted into liposomes consisting of a 3:1 POPE:POPG (Avanti polar lipids, USA, Cat. No. 850757 C, 840457 C) using biobeads. The lipids” for “The lipids”
Proteoliposomes were harvested through centrifugation before resuspending in counterflow buffer (50 mM potassium phosphate pH 7.5) containing 0.5 mM peptide or antibiotic (unless stated otherwise) or water as the negative control and were subjected to four rounds of freeze thawing in liquid nitrogen to fully distribute the buffer and ligand. The proteoliposomes were then extruded through a 0.2-μm filter. Transport was initiated by diluting into counterflow buffer containing 40 μM di-alanine with trace amounts of ^3H di-alanine, transport was allowed to proceed for 5 minutes before termination of the experiments through rapidly filtering onto 0.22-μm filters, which were then washed with 2 × 2 mL cold water. The amount of peptide transported inside the liposomes was calculated as above. Experiments were performed a minimal of five times and plotted as the level of transport for each ligand compared to the level observed with di-alanine as a percentage.

For test [3], the target named is T1, rat PepT2. In words: SSM-based electrophysiology (SURFE2R) of reconstituted PepT2. To be noted: result in words. The test is classed as biochemical. The method, then:
as §1, with “PepT2 was reconstituted into liposomes consisting of a 3:1 POPE:POPG (Avanti polar lipids, USA, Cat. No. 850757 C, 840457 C) using biobeads. The lipids” for “The lipids”
SSM-based assays were performed on a SURFE^2R N1 (Nanion Technologies) with sensors prepared as follows. 50 μl of 0.5 mM 1-octadecanethiol solution in isopropanol was added to the sensor and left overnight. The sensor was rinsed three times with isopropanol and then three times with water before being allowed to dry. 1.5 ul of 7.5 μg/μl 1,2-diphytanoyl-sn-glycero-3-phosphocholin in n-decane was applied to the surface of the sensor. Immediately after this 50 ul of non-activating buffer were added and left for an hour at room temperature. Proteoliposomes were diluted (5 ul liposomes with 36 ul buffer) in non-activating buffer (20 mM HEPES, 140 mM KCl, 2 mM MgCl2 pH 7.2) and sonicated four times for 10 s in a water bath before application (2–6 μl) to the prepared 3 mm sensors. Sensors were incubated at room temperature and centrifugation at 2800 g for 30 min at 10 °C and incubated at room temperature for at least an hour prior to assaying. The activating buffer was made with the desired concentration of ligand (alanine, di-alanine, or the antibiotics of interest) in non-activating buffer. A single solution exchange workflow was used with activating buffer applied at 1 s and removed at 2 s. This technique was used to distinguish between antibiotics substrate (gives a current, similar to a known peptide control – di-alanine) and inhibitor (no current observed similar to a known non substrate, alanine) and raw traces from 1–3 s are shown in Fig. 1.

In test [4] the target is T2, PepT2 (SLC15A2) from Rattus norvegicus (Rattus norvegicus, UniProt Q63424).
T2 construct: Proton-coupled peptide transporter PepT2 (SLC15A2), Rattus norvegicus; The extracellular domain is in the protein but was not built in the deposited models; also called rat PepT2; ratPepT2; source: HEK293F, transfected, purified (nickel NTA, TEV cleavage, SEC) in DDM:CHS; also reconstituted into POPE:POPG liposomes; not shown: GFP, C-terminal, cleaved; His tag, C-terminal, cleaved

[5] abbreviates: Supplementary Table 2, RnPepT2 reconstituted liposome assay, read-out: IC50 (µM) relative to L-Ala-L-Ala.
Setting [6] is: rat PepT2 in liposomes, inhibition of 3H di-alanine uptake, 4 minutes, mean of n = 3 (SD), read-out: IC50.
The mark [7] stands for this setting: single independent experiments, 3 per ligand, read-out: IC50, individual experiments (source data Fig 1c).
Setting [8] is: 5 min, read-out: Counterflow activity relative to L-Ala-L-Ala.
Setting [9] is: IC50, rat PepT2 in liposomes, inhibition of 3H di-alanine uptake, 4 minutes, mean of n = 3 (SD).
Where [10] appears, read: 0.5 mM ligand, listed as Ala-Ala.

Data on twelve molecules can be found in publication PMC11464717, “Structural basis for antibiotic transport and inhibition in PepT2” (Nature Communications, 2024).

In general, Ki refers to a dissociation constant, usually derived from enzyme kinetics or from competition with a known ligand. For orientation: IC50 means the midpoint of a concentration-inhibition curve.

“And” between values parts separate entries of the source, which are not always exact repeats. Equal values may be shown once. Read-outs that look alike come from different tables or passages of the source. Where a SMILES comes first, the peptide text is derived from it.

With `CC1=C(C(=O)O)N2C(=O)[C@@H](NC(=O)[C@H](N)c3ccc(O)cc3)[C@H]2SC1` [Cefadroxil, cefadroxil], the Ki on PepT2 is 3 µM. Besides, the IC50 is 20 µM at rat PepT2 [1] (setting [5]); 19 µM on rat PepT2 [1] (setting [6]); 22 µM and 17 µM at rat PepT2 [1] (setting [7]). Further, the “Counterflow transport, individual experiments (source data Fig 1d)” value (“Counterflow transport … (source data Fig 1d)” below) on rat PepT2 [2] (0.5 mM ligand) was 117 and 120.6 and 118 and 125 and 128. Further, the Counterflow activity relative to L-Ala-L-Ala at rat PepT2 [2] (setting [8]) was 120%. In addition, the “Ability to drive transport in counterflow” value (from here on “Ability to drive transport”) at rat PepT2 [2] was “more effectively than di-alanine”. In addition, at rat PepT2 [3], the “Capacitance change / current on solid support membrane” value (“Capacitance change / current” for short) is “significant capacitance change”.

Regarding `C[C@H](N)C(=O)O` [alanine], the “Capacitance change / current” value on rat PepT2 [3] is “non-transported”.

For `CO[C@@]1(NC(=O)C(C(=O)O)c2ccc(O)cc2)C(=O)N2C(C(=O)O)=C(CSc3nnnn3C)CO[C@@H]21` (some centres unmarked) [Moxalactam, moxalactam], the IC50 at rat PepT2 [1] (setting [6]) is 500 µM. Besides, the “Counterflow transport, individual experiments (source data Fig 5a)” value (from here on “Counterflow transport … (source data Fig 5a)”) at rat PepT2 [2] (1 mM ligand) is 5.6 and 5.3 and 6.5 and 4.2. Also, the Counterflow activity relative to L-Ala-L-Ala at rat PepT2 [2] (setting [8]) was 0%. Further, on rat PepT2 [2], the “Ability to drive transport” value is on record as “cannot transport”.

As to `N[C@@H](C(=O)N[C@@H]1C(=O)N2C(C(=O)O)=C(Cl)CS[C@H]12)c1ccccc1` [Cefaclor, cefaclor], the IC50 at rat PepT2 [1] (setting [7]) is 55 µM and 58 µM and 42 µM. Besides, the “Counterflow transport … (source data Fig 5a)” value at rat PepT2 [2] (0.5 mM ligand) was 82 and 72.2 and 77.1 and 71.3. Further, the Counterflow activity relative to L-Ala-L-Ala at rat PepT2 [2] (setting [8]) amounted to 76%. Also, the “Counterflow activity relative to di-alanine” value at rat PepT2 [2] (uptake of 3H di-alanine, 5 minutes, level relative to di-alanine, 0.5 mM ligand unless stated otherwise) is listed as 76%.

As to `Nc1nc(/C(=C/CC(=O)O)C(=O)N[C@@H]2C(=O)N3C(C(=O)O)=CCS[C@H]23)cs1` [Ceftibuten, ceftibuten], the IC50 came out at 1200 µM at rat PepT2 [1] (setting [5]) and 1000 µM at rat PepT2 [1] (rat PepT2 in liposomes, inhibition of 3H di-alanine uptake, read-out: IC50). Also, the “Counterflow transport … (source data Fig 5a)” value on rat PepT2 [2] (4 mM ligand) is 6.7 and 5.6 and 6.9. Moreover, the Counterflow activity relative to L-Ala-L-Ala at rat PepT2 [2] (setting [8]) turned out to be 0%. The “Ability to drive transport” value at rat PepT2 [2] was “cannot transport”.

Take `CC1(C)S[C@@H]2[C@H](NC(=O)[C@H](N)c3ccccc3)C(=O)N2[C@H]1C(=O)O` [Ampicillin, ampicillin]: the IC50 at rat PepT2 [1] (setting [9]) was 750 µM.

Take `CC1(C)S[C@@H]2[C@H](NC(=O)[C@H](N)c3ccc(O)cc3)C(=O)N2[C@H]1C(=O)O` [Amoxicillin, amoxicillin]: the Ki at PepT2 was 200 to 430 µM. Besides, the IC50 is 270 µM at rat PepT2 [1] (setting [6]); 225 µM and 301 µM and 280 µM on rat PepT2 [1] (setting [7]). Further, the “Counterflow transport … (source data Fig 1d)” value at rat PepT2 [2] (0.5 mM ligand, listed as Amoxacillin) is 29 and 39.2 and 34.1 and 35 and 28. Also, at rat PepT2 [2] (setting [8]), the Counterflow activity relative to L-Ala-L-Ala is 33%. Further, at rat PepT2 [3], the “Capacitance change / current” value is given as “significant capacitance change”.

`C[C@H](N)C(=O)N[C@@H](C)C(=O)O` [di-alanine, L-Ala-L-Ala] (H-Ala-Ala-OH): at rat PepT2 [1] (setting [6]), the IC50 worked out at 32 µM. Further, at rat PepT2 [1] (single independent experiments, 3 per ligand, listed as Ala-Ala, read-out: IC50, individual experiments (source data Fig 1c)), the IC50 was 34.6 µM and 31.2 µM and 29.4 µM. Moreover, at rat PepT2 [2] (setting [10]), the “Counterflow transport … (source data Fig 1d)” value was 100 and 99.8 and 108.7 and 97.1 and 95.2; the “Counterflow transport … (source data Fig 5a)” value was 97.2 and 101.1 and 99.1 and 100.3. In addition, the “Counterflow activity relative to L-Ala-L-Ala” value at rat PepT2 [2] was 100. Besides, on rat PepT2 [3], the “Capacitance change / current” value is on record as “significant capacitance change”.

For the molecule `CC1(C)S[C@@H]2[C@H](NC(=O)Cc3ccccc3)C(=O)N2[C@H]1C(=O)O` [Benzylpenicillin, benzylpenicillin], the “Counterflow transport … (source data Fig 5a)” value at rat PepT2 [2] (10 mM ligand) was 7.2 and 6.8 and 6.2 and 4.1. Further, the Counterflow activity relative to L-Ala-L-Ala on rat PepT2 [2] (setting [8]) stood at 0%. Besides, the “Ability to drive transport” value at rat PepT2 [2] is “cannot transport”.

Regarding `Cc1onc(-c2ccccc2Cl)c1C(=O)N[C@@H]1C(=O)N2[C@@H]1SC(C)(C)[C@@H]2C(=O)O` [Cloxacillin, cloxacillin], the Ki on PepT2 is 1000 µM. Further, the IC50 was 203 µM on rat PepT2 [1] (setting [9]); 180 µM and 220 µM and 210 µM at rat PepT2 [1] (setting [7]). The “Counterflow transport … (source data Fig 1d)” value was 4.1 and 3.2 and 4 and 1 and 3.1 on rat PepT2 [2] (0.5 mM ligand); 2.7 and 1.2 and 5.4 and 3.4 and 2.5 on rat PepT2 [2] (10 mM ligand). The Counterflow activity relative to L-Ala-L-Ala at rat PepT2 [2] (setting [8]) came to 0%. In addition, the “Ability to drive transport” value at rat PepT2 [2] was “unable to drive transport”.

For di-alanine peptide, in test [4], the IC50 of inhibition of the uptake of radioactive (3H) di-alanine into PepT2 proteoliposomes was determined as 32 µM.

With `N[C@@H](CCCCNC(=O)OCc1ccc([N+](=O)[O-])cc1)C(=O)N1CCC[C@H]1C(=O)O` [LZNP, Lys [Z(NO2)]-Proline], the “Counterflow transport … (source data Fig 1d)” value at rat PepT2 [2] (0.5 mM ligand) is 3.8 and 4.1 and 6.1 and 5.4.
